How the values were obtained:
Assay in all cases: relative viability (nuclei count vs DMSO), 5 days (fraction); higher = more cells survive
AT-7519 + Olaparib = compound: O=C(NC1CCNCC1)c1n[nH]cc1NC(=O)c1c(Cl)cccc1Cl [AT-7519] + O=C(c1cc(Cc2n[nH]c(=O)c3ccccc23)ccc1F)N1CCN(C(=O)C2CC2)CC1 [Olaparib] (partner 8 µM)
Outline: (§1)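 Dosing by pin tool came one day after lung cancer cell lines were seeded in 1536-well plates, using either one drug or a fixed anchor-drug dose plus five library-drug doses (not always all listed) in √10 steps. After 5 days, nuclei were counted on 4× images. Relative viability is treated-well nuclei count divided by vehicle-well nuclei count, and values are medians of duplicate plates.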

AT-7519 + Pictilisib = compound: O=C(NC1CCNCC1)c1n[nH]cc1NC(=O)c1c(Cl)cccc1Cl [AT-7519] + CS(=O)(=O)N1CCN(Cc2cc3nc(-c4cccc5[nH]ncc45)nc(N4CCOCC4)c3s2)CC1 [Pictilisib] (partner 1 µM)
Outline: as §1

[1] = compound: C1=CC2=C(C=C(C(=C2N=C1)O)N=NC3=CC4=C(C=C3)C=C(C=C4)S(=O)(=O)O)S(=O)(=O)O + CC(=O)Nc1cccc(-n2c(=O)n(C3CC3)c(=O)c3c(Nc4ccc(I)cc4F)n(C)c(=O)c(C)c32)c1 [Trametinib] (partner 0.02 µM)
Outline: as §1

[2] = compound: C1=CC2=C(C=C(C(=C2N=C1)O)N=NC3=CC4=C(C=C3)C=C(C=C4)S(=O)(=O)O)S(=O)(=O)O + CCNC(=O)c1noc(-c2cc(C(C)C)c(O)cc2O)c1-c1ccc(CN2CCOCC2)cc1 [Luminespib] (partner 0.01 µM)
Outline: as §1

| Cell Line | relative viability (AT-7519 + Olaparib; first compound 0.01 µM) | relative viability (AT-7519 + Olaparib; first compound 0.03162 µM) | relative viability (AT-7519 + Olaparib; first compound 0.3162 µM) | relative viability (AT-7519 + Olaparib; first compound 1 µM) | relative viability (AT-7519 + Pictilisib; first compound 0.01 µM) | relative viability (AT-7519 + Pictilisib; first compound 0.03162 µM) | relative viability (AT-7519 + Pictilisib; first compound 0.3162 µM) | relative viability (AT-7519 + Pictilisib; first compound 1 µM) | relative viability ([1]; first compound 0.08 µM) | relative viability ([1]; first compound 0.253 µM) | relative viability ([1]; first compound 0.8 µM) | relative viability ([1]; first compound 2.53 µM) | relative viability ([1]; first compound 8 µM) | relative viability ([2]; first compound 0.08 µM) | relative viability ([2]; first compound 0.253 µM) | relative viability ([2]; first compound 0.8 µM) | relative viability ([2]; first compound 2.53 µM) | relative viability ([2]; first compound 8 µM) |
| --- | --- | --- | --- | --- | --- | --- | --- | --- | --- | --- | --- | --- | --- | --- | --- | --- | --- | --- |
| NCI-H460 | 0.367 | 0.456 | 0.315 | 0.18 | 0.346 | 0.446 | 0.37 | 0.286 | 0.187 | 0.0935 | 0.138 | 0.141 | 0.169 | 0.0298 | 0.032 | 0.13 | 0.022 | 0.0231 |
| NCI-H520 | 0.341 | 0.315 | 0.287 | 0.201 | 0.344 | 0.296 | 0.249 | 0.171 | 0.784 | 0.6 | 0.768 | 0.625 | 0.807 | 0.237 | 0.218 | 0.237 | 0.225 | 0.231 |
| NCI-H596 | 0.64 | 0.733 | 0.691 | 0.644 | 0.389 | 0.433 | 0.414 | 0.347 | 0.939 | 0.751 | 0.77 | 0.795 | 0.681 | 1.16 | 1.09 | 1.05 | 1.11 | 0.832 |
| NCI-H647 | 0.355 | 0.55 | 0.482 | 0.189 | 0.452 | 0.531 | 0.483 | 0.356 | 0.584 | 0.429 | 0.426 | 0.54 | 0.518 | 0.138 | 0.241 | 0.215 | 0.276 | 0.135 |
| NCI-H650 | 0.413 | 0.384 | 0.439 | 0.349 | 0.868 | 0.851 | 0.84 | 0.672 | 0.947 | 0.947 | 0.875 | 0.948 | 0.894 | 0.876 | 0.874 | 0.691 | 0.889 | 0.76 |
| NCI-H661 | 0.775 | 0.834 | 0.762 | 0.251 | 0.398 | 0.386 | 0.399 | 0.289 | 0.627 | 0.532 | 0.568 | 0.625 | 0.613 | 0.932 | 0.887 | 0.847 | 0.945 | 0.849 |
| NCI-H727 | 0.711 | 0.772 | 0.7 | 0.365 | 0.354 | 0.263 | 0.197 | 0.204 | 0.344 | 0.398 | 0.351 | 0.356 | 0.335 | 0.478 | 0.45 | 0.327 | 0.346 | 0.359 |
| NCI-H838 | 0.812 | 0.766 | 0.576 | 0.0987 | 0.567 | 0.427 | 0.145 | 0.103 | 0.566 | 0.543 | 0.453 | 0.508 | 0.653 | 0.294 | 0.281 | 0.267 | 0.24 | 0.279 |
| NCI-H1355 | 0.687 | 0.765 | 0.789 | 0.68 | 0.462 | 0.388 | 0.475 | 0.35 | 0.41 | 0.411 | 0.431 | 0.416 | 0.476 | 0.737 | 0.735 | 0.646 | 0.68 | 0.775 |
| NCI-H1395 | 0.374 | 0.471 | 0.413 | 0.419 | 0.662 | 0.523 | 0.51 | 0.471 | 1.07 | 1.02 | 1.02 | 0.911 | 1.02 | 0.851 | 0.859 | 0.806 | 0.701 | 0.786 |
| NCI-H1437 | 0.644 | 0.643 | 0.574 | 0.279 | 0.471 | 0.392 | 0.29 | 0.133 | 0.528 | 0.477 | 0.524 | 0.623 | 0.641 | 1.21 | 1.11 | 1.13 | 1.16 | 0.571 |
| NCI-H1650 | 0.899 | 0.776 | 0.75 | 0.193 | 0.701 | 0.548 | 0.295 | 0.177 | 0.672 | 0.547 | 0.512 | 0.682 | 0.433 | 0.197 | 0.177 | 0.194 | 0.191 | 0.184 |
| NCI-H1651 | 0.201 | 0.172 | 0.163 | 0.204 | 0.59 | 0.478 | 0.397 | 0.41 | 0.799 | 0.839 | 0.832 | 0.848 | 0.744 | 1.25 | 0.869 | 0.877 | 0.86 | 0.836 |
| NCI-H1666 | 0.674 | 0.724 | 0.68 | 0.65 | 0.405 | 0.425 | 0.39 | 0.145 | 0.874 | 0.877 | 0.861 | 0.861 | 0.903 | 1.09 | 0.912 | 1.07 | 0.978 | 0.596 |
| NCI-H1734 | 0.535 | 0.585 | 0.537 | 0.263 | 0.552 | 0.452 | 0.439 | 0.252 | 0.728 | 0.654 | 0.687 | 0.72 | 0.694 | 0.166 | 0.182 | 0.236 | 0.182 | 0.193 |
| NCI-H1755 | 0.946 | 0.957 | 0.949 | 0.854 | 0.444 | 0.379 | 0.346 | 0.297 | 0.761 | 0.754 | 0.739 | 0.761 | 0.732 | 0.431 | 0.378 | 0.395 | 0.41 | 0.472 |
| NCI-H1792 | 0.282 | 0.313 | 0.522 | 0.311 | 0.196 | 0.218 | 0.234 | 0.252 | 0.5 | 0.387 | 0.454 | 0.494 | 0.391 | 0.481 | 0.418 | 0.58 | 0.423 | 0.331 |
